# Experimental data taken from PMC8799717, “Pharmacological targeting PIKfyve and tubulin as an effective treatment strategy for double-hit lymphoma” (Cell Death Discovery, 2022).
# Assays:
# Assay in all cases: biochemical
# Set-up in all cases: KINOMEscan active-site-directed competition binding panel, 468 kinases, percent of DMSO control at 1 uM
# Settings in all cases: KINOMEscan binding, percent of DMSO control; read-out: Ctrl%
# LOK = biological target: T1, LOK (Homo sapiens, UniProt O94804)
# T1 construct: gene STK10
# T1 sequence (O94804 whole entry): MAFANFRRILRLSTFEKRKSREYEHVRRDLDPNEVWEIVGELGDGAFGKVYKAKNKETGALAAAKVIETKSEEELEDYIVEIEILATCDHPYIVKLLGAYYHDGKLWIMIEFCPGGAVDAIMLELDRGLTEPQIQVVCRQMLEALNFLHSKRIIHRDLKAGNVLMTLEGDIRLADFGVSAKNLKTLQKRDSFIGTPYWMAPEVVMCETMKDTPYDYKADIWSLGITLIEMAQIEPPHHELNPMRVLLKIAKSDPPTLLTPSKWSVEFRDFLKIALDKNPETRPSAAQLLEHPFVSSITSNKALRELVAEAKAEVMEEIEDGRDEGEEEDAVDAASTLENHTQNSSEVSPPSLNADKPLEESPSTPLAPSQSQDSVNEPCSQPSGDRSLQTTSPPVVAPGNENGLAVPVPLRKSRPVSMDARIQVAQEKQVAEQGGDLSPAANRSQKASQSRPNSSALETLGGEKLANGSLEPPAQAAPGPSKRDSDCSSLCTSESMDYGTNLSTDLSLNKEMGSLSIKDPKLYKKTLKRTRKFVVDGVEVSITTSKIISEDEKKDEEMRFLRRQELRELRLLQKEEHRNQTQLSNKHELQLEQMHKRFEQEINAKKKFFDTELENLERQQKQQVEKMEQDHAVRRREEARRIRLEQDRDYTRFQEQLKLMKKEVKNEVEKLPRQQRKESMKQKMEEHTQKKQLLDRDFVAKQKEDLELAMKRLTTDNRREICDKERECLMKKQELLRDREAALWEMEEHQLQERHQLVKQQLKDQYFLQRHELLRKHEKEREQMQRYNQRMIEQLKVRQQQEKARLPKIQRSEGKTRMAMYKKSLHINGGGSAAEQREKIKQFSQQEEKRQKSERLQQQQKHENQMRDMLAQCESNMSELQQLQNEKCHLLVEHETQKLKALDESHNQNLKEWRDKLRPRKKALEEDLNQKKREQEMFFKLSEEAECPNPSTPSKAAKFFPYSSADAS
# CDK11 = biological target: T2, CDK11 (Homo sapiens, UniProt Q9BWU1)
# T2 construct: gene CDK19
# T2 sequence (Q9BWU1 whole entry): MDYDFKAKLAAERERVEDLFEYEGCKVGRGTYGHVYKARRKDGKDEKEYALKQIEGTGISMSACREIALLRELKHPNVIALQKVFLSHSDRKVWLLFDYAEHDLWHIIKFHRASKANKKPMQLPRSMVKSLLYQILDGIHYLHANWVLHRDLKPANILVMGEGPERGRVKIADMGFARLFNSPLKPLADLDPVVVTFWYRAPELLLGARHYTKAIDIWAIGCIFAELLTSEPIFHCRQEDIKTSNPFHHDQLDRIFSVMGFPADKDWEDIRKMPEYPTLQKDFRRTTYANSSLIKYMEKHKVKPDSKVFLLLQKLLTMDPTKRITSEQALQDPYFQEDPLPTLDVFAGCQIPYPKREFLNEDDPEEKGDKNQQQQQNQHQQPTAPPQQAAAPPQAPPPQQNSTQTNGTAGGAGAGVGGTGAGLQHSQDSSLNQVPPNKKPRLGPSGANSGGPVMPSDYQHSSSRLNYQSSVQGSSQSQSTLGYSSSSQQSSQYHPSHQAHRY
# PIK3CA(H1047Y) = PIK3CA(H1047Y) (Homo sapiens, UniProt P42336, H1047Y)
# TESK1 = TESK1 (Homo sapiens, UniProt Q15569)
# PIK3CG = PIK3CG (Homo sapiens, UniProt P48736)
# PIK3CG, sequence (P48736 whole entry): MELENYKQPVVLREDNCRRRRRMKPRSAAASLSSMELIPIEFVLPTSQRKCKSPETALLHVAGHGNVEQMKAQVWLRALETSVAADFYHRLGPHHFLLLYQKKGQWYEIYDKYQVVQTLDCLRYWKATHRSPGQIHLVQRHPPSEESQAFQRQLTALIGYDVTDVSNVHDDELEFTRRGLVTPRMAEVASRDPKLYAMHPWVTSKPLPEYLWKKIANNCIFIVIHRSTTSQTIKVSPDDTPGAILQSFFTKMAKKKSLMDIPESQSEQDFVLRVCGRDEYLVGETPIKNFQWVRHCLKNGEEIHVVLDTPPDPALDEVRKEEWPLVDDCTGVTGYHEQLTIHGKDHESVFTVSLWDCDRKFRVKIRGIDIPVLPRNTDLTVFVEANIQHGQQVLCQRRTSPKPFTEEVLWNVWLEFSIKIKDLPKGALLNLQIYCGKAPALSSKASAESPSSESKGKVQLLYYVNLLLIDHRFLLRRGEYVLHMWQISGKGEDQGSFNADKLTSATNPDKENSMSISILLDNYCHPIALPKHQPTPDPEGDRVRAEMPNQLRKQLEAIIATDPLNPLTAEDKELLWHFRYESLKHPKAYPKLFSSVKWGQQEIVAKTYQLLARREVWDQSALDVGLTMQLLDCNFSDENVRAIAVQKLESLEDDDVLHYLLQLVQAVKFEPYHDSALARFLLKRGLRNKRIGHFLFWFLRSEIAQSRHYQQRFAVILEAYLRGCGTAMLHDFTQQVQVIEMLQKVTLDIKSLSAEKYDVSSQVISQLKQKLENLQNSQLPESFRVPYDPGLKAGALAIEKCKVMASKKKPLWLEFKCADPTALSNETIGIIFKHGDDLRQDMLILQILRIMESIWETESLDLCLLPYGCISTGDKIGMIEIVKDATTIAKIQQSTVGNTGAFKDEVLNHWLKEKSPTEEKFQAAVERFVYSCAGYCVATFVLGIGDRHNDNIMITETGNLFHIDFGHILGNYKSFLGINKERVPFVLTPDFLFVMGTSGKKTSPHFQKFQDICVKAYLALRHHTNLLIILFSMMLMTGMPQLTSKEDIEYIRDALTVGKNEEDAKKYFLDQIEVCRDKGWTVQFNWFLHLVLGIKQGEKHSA
# BMPR2 = BMPR2 (Homo sapiens, UniProt Q13873)
# BMPR2, sequence (Q13873 whole entry): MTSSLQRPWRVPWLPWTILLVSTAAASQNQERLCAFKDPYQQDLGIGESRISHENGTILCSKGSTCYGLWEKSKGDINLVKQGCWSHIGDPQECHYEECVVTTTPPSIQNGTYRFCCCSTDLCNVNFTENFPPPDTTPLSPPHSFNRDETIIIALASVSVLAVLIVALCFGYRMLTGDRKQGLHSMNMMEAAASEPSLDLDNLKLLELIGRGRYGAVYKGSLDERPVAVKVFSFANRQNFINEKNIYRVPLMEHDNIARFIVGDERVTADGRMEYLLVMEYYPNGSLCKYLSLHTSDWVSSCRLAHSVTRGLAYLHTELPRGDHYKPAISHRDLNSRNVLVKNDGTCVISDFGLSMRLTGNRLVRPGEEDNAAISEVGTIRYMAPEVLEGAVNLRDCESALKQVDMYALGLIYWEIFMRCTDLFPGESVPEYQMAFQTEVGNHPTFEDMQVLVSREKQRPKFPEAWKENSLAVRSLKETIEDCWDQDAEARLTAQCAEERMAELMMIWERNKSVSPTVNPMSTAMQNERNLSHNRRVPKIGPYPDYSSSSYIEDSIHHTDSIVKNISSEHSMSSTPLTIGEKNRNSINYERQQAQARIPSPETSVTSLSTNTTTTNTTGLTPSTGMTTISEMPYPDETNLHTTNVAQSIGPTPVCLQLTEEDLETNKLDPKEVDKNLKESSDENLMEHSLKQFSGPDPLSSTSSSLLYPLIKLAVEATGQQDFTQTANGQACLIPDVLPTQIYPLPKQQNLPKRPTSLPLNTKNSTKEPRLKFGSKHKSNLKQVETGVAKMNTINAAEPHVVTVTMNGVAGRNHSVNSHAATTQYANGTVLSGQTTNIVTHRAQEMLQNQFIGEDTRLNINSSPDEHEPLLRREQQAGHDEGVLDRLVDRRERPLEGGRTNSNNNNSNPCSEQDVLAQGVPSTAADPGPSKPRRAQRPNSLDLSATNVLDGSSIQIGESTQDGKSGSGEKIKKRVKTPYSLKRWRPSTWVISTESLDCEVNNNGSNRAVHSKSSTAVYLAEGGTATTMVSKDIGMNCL
# EGFR(G719C) = EGFR(G719C) (Homo sapiens, UniProt P00533, G719C)
# PIP5K1C = PIP5K1C (Homo sapiens, UniProt O60331)
# DAPK1 = DAPK1 (Homo sapiens, UniProt P53355)
# MAP4K5 = MAP4K5 (Homo sapiens, UniProt Q9Y4K4)
# MAP4K5, sequence (Q9Y4K4 whole entry): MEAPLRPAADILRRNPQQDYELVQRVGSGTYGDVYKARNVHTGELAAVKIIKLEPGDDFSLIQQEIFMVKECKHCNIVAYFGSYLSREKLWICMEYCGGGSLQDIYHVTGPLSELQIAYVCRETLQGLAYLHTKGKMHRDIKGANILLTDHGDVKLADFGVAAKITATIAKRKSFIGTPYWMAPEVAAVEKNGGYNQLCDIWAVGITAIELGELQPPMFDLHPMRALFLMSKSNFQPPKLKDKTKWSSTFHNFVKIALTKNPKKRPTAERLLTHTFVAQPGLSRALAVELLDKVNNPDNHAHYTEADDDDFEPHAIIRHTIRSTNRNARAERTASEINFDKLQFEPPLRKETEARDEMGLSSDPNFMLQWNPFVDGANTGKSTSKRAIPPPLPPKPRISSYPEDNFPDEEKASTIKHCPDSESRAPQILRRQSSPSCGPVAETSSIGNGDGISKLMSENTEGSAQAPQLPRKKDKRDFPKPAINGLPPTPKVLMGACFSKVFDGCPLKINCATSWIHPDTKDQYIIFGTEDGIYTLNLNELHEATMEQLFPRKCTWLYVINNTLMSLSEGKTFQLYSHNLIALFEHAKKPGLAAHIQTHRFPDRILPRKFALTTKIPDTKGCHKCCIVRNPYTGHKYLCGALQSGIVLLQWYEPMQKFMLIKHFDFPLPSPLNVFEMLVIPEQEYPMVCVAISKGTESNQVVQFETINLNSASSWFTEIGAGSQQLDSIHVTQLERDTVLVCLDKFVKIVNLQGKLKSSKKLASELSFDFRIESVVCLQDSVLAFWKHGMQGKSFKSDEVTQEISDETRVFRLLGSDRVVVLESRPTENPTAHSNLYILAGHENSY
# IKK-beta = biological target: T3, IKK-beta (Homo sapiens, UniProt O14920)
# T3 construct: gene IKBKB
# TSSK3 = TSSK3 (Homo sapiens, UniProt Q96PN8)
# MYO3A = MYO3A (Homo sapiens, UniProt Q8NEV4)
# EGFR(L861Q) = EGFR(L861Q) (Homo sapiens, UniProt P00533, L861Q)
# RIPK2 = RIPK2 (Homo sapiens, UniProt O43353)
# ITK = ITK (Homo sapiens, UniProt Q08881)
# ITK, sequence (Q08881 whole entry): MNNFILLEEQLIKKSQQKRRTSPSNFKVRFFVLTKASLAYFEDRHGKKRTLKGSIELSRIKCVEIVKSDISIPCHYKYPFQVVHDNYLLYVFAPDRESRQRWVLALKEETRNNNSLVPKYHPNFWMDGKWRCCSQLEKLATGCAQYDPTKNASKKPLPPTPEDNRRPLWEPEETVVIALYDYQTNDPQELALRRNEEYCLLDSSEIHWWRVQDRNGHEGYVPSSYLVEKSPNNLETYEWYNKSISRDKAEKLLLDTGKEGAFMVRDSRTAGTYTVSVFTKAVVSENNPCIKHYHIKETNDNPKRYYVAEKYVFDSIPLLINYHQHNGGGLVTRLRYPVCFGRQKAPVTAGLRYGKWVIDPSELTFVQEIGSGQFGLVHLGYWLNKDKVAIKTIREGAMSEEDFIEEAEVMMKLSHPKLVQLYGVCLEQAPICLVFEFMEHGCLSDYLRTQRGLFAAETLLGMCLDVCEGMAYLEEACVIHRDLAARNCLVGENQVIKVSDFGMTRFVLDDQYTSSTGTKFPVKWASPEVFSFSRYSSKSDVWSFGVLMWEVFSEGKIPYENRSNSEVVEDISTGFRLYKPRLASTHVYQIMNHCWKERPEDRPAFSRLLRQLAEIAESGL
# YES = biological target: T4, YES (Homo sapiens, UniProt P07947)
# T4 construct: gene YES1
# PDGFRB = PDGFRB (Homo sapiens, UniProt P09619)
# IKK-epsilon = biological target: T5, IKK-epsilon (Homo sapiens, UniProt Q14164)
# T5 construct: gene IKBKE
# LKB1 = biological target: T6, LKB1 (Homo sapiens, UniProt Q15831)
# T6 construct: gene STK11
# TRKC = biological target: T7, TRKC (Homo sapiens, UniProt Q16288)
# T7 construct: gene NTRK3
# PIP5K1A = PIP5K1A (Homo sapiens, UniProt Q99755)
# ALK(L1196M) = ALK(L1196M) (Homo sapiens, UniProt Q9UM73, L1196M)
# HUNK = HUNK (Homo sapiens, UniProt P57058)
compound,measurement,setting,value
Cc1ccc(NC(=O)c2cccc(C(F)(F)F)c2)cc1Nc1cc(-c2cccnc2)nc2[nH]ccc12 [HZX-02-059],remaining binding at 1 µM,LOK,47%
same,remaining binding at 1 µM,CDK11,79%
same,remaining binding at 1 µM,PIK3CA(H1047Y),88%
same,remaining binding at 1 µM,TESK1,77%
same,remaining binding at 1 µM,PIK3CG,96%
same,remaining binding at 1 µM,BMPR2,100%
same,remaining binding at 1 µM,EGFR(G719C),96%
same,remaining binding at 1 µM,PIP5K1C,73%
same,remaining binding at 1 µM,DAPK1,93%
same,remaining binding at 1 µM,MAP4K5,73%
same,remaining binding at 1 µM,IKK-beta,100%
same,remaining binding at 1 µM,TSSK3,100%
same,remaining binding at 1 µM,MYO3A,91%
same,remaining binding at 1 µM,EGFR(L861Q),76%
same,remaining binding at 1 µM,RIPK2,100%
same,remaining binding at 1 µM,ITK,100%
same,remaining binding at 1 µM,YES,86%
same,remaining binding at 1 µM,PDGFRB,3.3%
same,remaining binding at 1 µM,IKK-epsilon,70%
same,remaining binding at 1 µM,LKB1,72%
same,remaining binding at 1 µM,TRKC,100%
same,remaining binding at 1 µM,PIP5K1A,79%
same,remaining binding at 1 µM,ALK(L1196M),97%
same,remaining binding at 1 µM,HUNK,91%
